This note sets out measurements from US8569336B2, “Compounds for the treatment of inflammatory disorders” (priority 2008, dated 2013).

Like-named read-outs stand apart in the source and are kept apart here.

The target of assay [1] is T1, purified catalytic domain of recombinant human TACE (rhTACEc) (Homo sapiens, UniProt P78536, N452Q/S266A).
T1 construct: 6xHis (C); made in house; host or cells: baculovirus/Hi5 insect cells
In words: TACE kinetic assay: cleavage of internally quenched peptide substrate TNF-FRET 2 (Ki). As to conditions: TNF-FRET 2 substrate. In kind it is biochemical.

Assay [2] relates to TNF-α production from human whole blood. In words: Inhibition of TNF-α production from human whole blood (hWBA), LPS stimulated, ELISA. In kind it is cell-based. As to conditions: Homo sapiens, 3.5 h, human whole blood diluted 1:1, LPS stimulated, 3.5 h, TNF-α by ELISA; read-out: hWBA (IC50).

T1 sequence (P78536 215-477 S266A/N452Q): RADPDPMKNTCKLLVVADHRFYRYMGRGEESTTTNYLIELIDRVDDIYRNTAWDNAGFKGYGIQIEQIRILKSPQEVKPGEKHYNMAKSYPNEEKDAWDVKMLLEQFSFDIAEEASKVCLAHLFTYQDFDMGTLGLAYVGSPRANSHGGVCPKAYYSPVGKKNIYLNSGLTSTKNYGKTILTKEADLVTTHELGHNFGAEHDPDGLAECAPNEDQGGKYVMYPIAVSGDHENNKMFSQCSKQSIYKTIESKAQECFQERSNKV

As usually defined, the Ki is the equilibrium dissociation constant of an inhibitor or competing ligand from its target. What is called IC50 is the concentration needed to halve the response being measured. As to `COc1ccc2c(c1)C(=O)N(C[C@@]1(c3cc4cc(CC(N)=O)ccc4o3)NC(=O)NC1=O)C2` [Compound 2209], the inhibition constant Ki in assay [1] (read-out: Ki) was determined as 2.51 nM. Further, in assay [2], the IC50 is 542 nM.

`COc1ccc2c(c1)C(=O)N(C[C@@]1(c3cc4cc(C5(C)NC(=O)NC5=O)cc(C)c4o3)NC(=O)NC1=O)C2` (stereo partly shown) [Compound 2211]: the Ki in assay [1] (read-out: Ki) stood at 0.216 nM. The IC50 in assay [2] was 1550 nM.

As to `COc1ccc2c(c1)C(=O)N(C[C@@]1(c3cc4cc(C5(C)CNC(=O)N5)cc(C)c4o3)NC(=O)NC1=O)C2` (stereo partly shown) [Compound 2212], the Ki in assay [1] (read-out: Ki) was 0.095 nM. Besides, in assay [2], the IC50 was determined as 2860 nM.

For the compound `COc1ccc2c(c1)C(=O)N(C[C@@]1(c3cc4cc(-c5c(C)nn(C)c5C)ccc4o3)NC(=O)NC1=O)C2` [Compound 2213], the inhibition constant (Ki) in assay [1] (read-out: Ki) came out at 0.403 nM. In assay [2], the IC50 came out at 1510 nM.

With `COc1ccc2c(c1)C(=O)N(C[C@@]1(c3cc4cc(C5CNC(=O)C5)ccc4o3)NC(=O)NC1=O)C2` (stereo partly shown) [Compound 2215], the Ki in assay [1] (Ki) was found to be 0.524 nM. For the same compound, the IC50 in assay [2] is 381 nM.

With `COc1ccc2c(c1F)C(=O)N(C[C@@]1(c3cc4c(Cl)nccc4o3)NC(=O)NC1=O)C2` [Compound 2216], the inhibitory constant (Ki) in assay [1] (read-out: Ki) was determined as 0.41 nM. In assay [2], the IC50 is 313 nM.

Consider `COc1ccc2c(c1F)C(=O)N(C[C@@]1(c3cc4cnc(Cl)cc4o3)NC(=O)NC1=O)C2` [Compound 2217], for which the Ki in assay [1] (read-out: Ki) amounted to 0.604 nM. Also, the IC50 in assay [2] is 859 nM.

With `COc1ccc2c(c1F)C(=O)N(C[C@@]1(c3cc4nc(-c5cccnc5)ccc4o3)NC(=O)NC1=O)C2` [Compound 2218], the Ki in assay [1] (read-out: Ki) was 0.232 nM. Moreover, the IC50 in assay [2] was determined as 1000 nM.

As to `COc1ccc2c(c1)C(=O)N(C[C@@]1(c3cc4cc(NC(N)=O)ccc4o3)NC(=O)NC1=O)C2` [Compound 2221], the Ki in assay [1] (read-out: Ki) came out at 0.099 nM. Also, the IC50 in assay [2] amounted to 143 nM.

With `COc1ccc2c(c1)C(=O)N(C[C@@]1(c3cc4cc(NS(C)(=O)=O)ccc4o3)NC(=O)NC1=O)C2` [Compound 2222], the Ki in assay [1] (read-out: Ki) amounted to 0.701 nM. Besides, the IC50 in assay [2] stood at 343 nM.

Take `COc1ccc2c(c1)C(=O)N(CC1(c3cc4cc(-c5cc(O)[nH]n5)ccc4o3)NC(=O)NC1=O)C2` (stereo not shown) [Compound 2223]: the Ki in assay [1] (read-out: Ki) turned out to be 1.23 nM. Moreover, the IC50 in assay [2] was determined as 242 nM.

With `COc1ccc2c(c1)C(=O)N(CC1(c3cc4cc(-c5cc(=O)[nH]c(N)n5)ccc4o3)NC(=O)NC1=O)C2` (stereo not shown) [Compound 2224], the Ki in assay [1] (Ki) was 0.313 nM. For the same compound, the IC50 in assay [2] came to 139 nM.

For the compound `COc1ccc2c(c1)C(=O)N(C[C@@]1(c3cc4cc(N5C(=O)CNC5=O)ccc4o3)NC(=O)NC1=O)C2` [Compound 2225], the Ki in assay [1] (read-out: Ki) is 0.564 nM. The IC50 in assay [2] was determined as 677 nM.

As for `COc1ccc2c(c1)C(=O)N(C[C@@]1(c3cc4cc(N5CC(=O)NS5(=O)=O)ccc4o3)NC(=O)NC1=O)C2` [Compound 2230], in assay [1] (read-out: Ki), the Ki is 0.781 nM. The IC50 in assay [2] was 4410 nM.

`COc1ccc2c(c1)C(=O)N(C[C@@]1(c3cc4c(-c5ccccc5F)nccc4o3)NC(=O)NC1=O)C2` [Compound 2237]: the Ki in assay [1] (read-out: Ki) was 0.356 nM. Moreover, in assay [2], the IC50 came to 1150 nM.

For the compound `COc1ccc2c(c1)C(=O)N(C[C@@]1(c3cc4cc(-c5cccc(O)c5)ncc4o3)NC(=O)NC1=O)C2` [Compound 2242], the Ki in assay [1] (read-out: Ki) was 0.566 nM. Besides, the IC50 in assay [2] was determined as 3390 nM.

Turning to `COc1ccc2c(c1)C(=O)N(C[C@@]1(c3cc4cc(-c5cncc(O)c5)ncc4o3)NC(=O)NC1=O)C2` [Compound 2244], in assay [1] (read-out: Ki), the Ki was 0.35 nM. Besides, the IC50 in assay [2] was 365 nM.

As for `COc1ccc2c(c1)C(=O)N(C[C@@]1(c3cc4cc(-c5cc(N)n[nH]5)ccc4o3)NC(=O)NC1=O)C2` [Compound 2246], the Ki in assay [1] (read-out: Ki) was found to be 0.523 nM. Moreover, the IC50 in assay [2] came out at 110 nM.

Turning to `COc1ccc2c(c1)C(=O)N(C[C@@]1(c3cc4c(NCc5ccccc5)ccnc4o3)NC(=O)NC1=O)C2` [Compound 2248], the Ki in assay [1] (Ki) was found to be 1.61 nM. In assay [2], the IC50 was 233 nM.

Consider `COc1ccc2c(c1)C(=O)N(C[C@@]1(c3cc4cnc(-c5c(C)nn(C)c5C)cc4o3)NC(=O)NC1=O)C2` [Compound 2251], for which the Ki in assay [1] (read-out: Ki) amounted to 0.746 nM. Also, the IC50 in assay [2] worked out at 2490 nM.
